compound: CC1=C(N=C(N=C1N)[C@H](CC(=O)N)NC[C@@H](C(=O)N)N)C(=O)N[C@@H]([C@H](C2=CN=CN2)OC3C(C(C(C(O3)CO)O)O)OC4C(C(C(C(O4)CO)O)OC(=O)N)O)C(=O)N[C@H](C)[C@H]([C@H](C)C(=O)N[C@@H]([C@@H](C)O)C(=O)NCCC5=NC(=CS5)C6=NC(=CS6)C(=O)NCCC[S+](C)C)O [Bleomycin] + CC(=O)Nc1cccc(-n2c(=O)n(C3CC3)c(=O)c3c(Nc4ccc(I)cc4F)n(C)c(=O)c(C)c32)c1 [Trametinib] (partner 0.02 µM); assay: relative viability (nuclei count vs DMSO), 5 days (fraction); higher = more cells survive; settings: first compound 0.01 µM; main component drawn
Procedure, shortened: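 Lung cancer cell lines were pin-tool dosed in 1536-well plates on the day after seeding, with either a lone drug or a fixed anchor-drug dose plus five library-drug doses (not always all listed) in √10 steps. Nuclei were counted on 4× images after 5 days. Relative viability is the ratio of treated-well to vehicle-well nuclei counts, with each value a median of duplicate plates.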

Point of comparison: NCI-H1793, relative viability 0.442. Against it:
- NCI-H522 — higher, 0.776
- NCI-H838 — lower, 0.432
- NCI-H1650 — lower, 0.325
- NCI-H1993 — higher, 0.493
- NCI-H2087 — lower, 0.204
- PC-14 — lower, 0.243
- LCLC-103H — higher, 0.628
- NCI-H596 — higher, 0.674
- NCI-H2228 — higher, 0.537
- NCI-H2085 — higher, 0.549
- HCC-366 — lower, 0.219
- NCI-H1666 — higher, 0.717
- NCI-H647 — lower, 0.35
- LK-2 — higher, 0.474
- NCI-H2126 — higher, 0.525
- NCI-H2342 — higher, 0.896
- SK-MES-1 — higher, 0.501
- H3255 — higher, 0.575
- NCI-H2170 — higher, 0.89
- SW 900 — higher, 0.858
- NCI-H1648 — lower, 0.388
- NCI-H1395 — higher, 0.753
- CAL-12T — lower, 0.339
- NCI-H1944 — lower, 0.319
- NCI-H358 — lower, 0.138

same assay, conditions: first compound 0.03162 µM; main component drawn

Point of comparison: CAL-12T, relative viability 0.326. Against it:
- NCI-H522 — higher, 0.705
- NCI-H838 — lower, 0.246
- NCI-H1650 — lower, 0.257
- NCI-H1993 — higher, 0.476
- NCI-H2087 — lower, 0.146
- PC-14 — lower, 0.205
- LCLC-103H — higher, 0.678
- NCI-H596 — higher, 0.562
- NCI-H2228 — higher, 0.468
- EMC-BAC-2 — higher, 0.6
- NCI-H2085 — higher, 0.514
- HCC-366 — lower, 0.144
- NCI-H1666 — higher, 0.783
- NCI-H647 — lower, 0.217
- LK-2 — higher, 0.389
- NCI-H2126 — higher, 0.583
- NCI-H2342 — higher, 0.737
- SK-MES-1 — higher, 0.532
- H3255 — higher, 0.506
- NCI-H2170 — higher, 0.89
- SW 900 — higher, 0.561
- NCI-H1648 — higher, 0.4
- NCI-H1395 — higher, 0.822
- NCI-H1793 — higher, 0.413
- NCI-H1944 — lower, 0.255
- NCI-H358 — lower, 0.138

same assay, conditions: first compound 0.1 µM; main component drawn

Point of comparison: NCI-H1395, relative viability 0.714. Against it:
- NCI-H522 — higher, 0.763
- NCI-H838 — lower, 0.186
- NCI-H1650 — lower, 0.244
- NCI-H1993 — lower, 0.459
- NCI-H2087 — lower, 0.176
- PC-14 — lower, 0.133
- LCLC-103H — lower, 0.62
- NCI-H596 — lower, 0.423
- NCI-H2228 — lower, 0.431
- EMC-BAC-2 — lower, 0.535
- NCI-H2085 — lower, 0.384
- HCC-366 — lower, 0.147
- NCI-H1666 — higher, 0.76
- NCI-H647 — lower, 0.158
- LK-2 — lower, 0.449
- NCI-H2126 — lower, 0.594
- NCI-H2342 — higher, 0.758
- SK-MES-1 — lower, 0.527
- H3255 — lower, 0.629
- NCI-H2170 — higher, 0.808
- SW 900 — lower, 0.453
- NCI-H1648 — lower, 0.416
- CAL-12T — lower, 0.294
- NCI-H1793 — lower, 0.382
- NCI-H1944 — lower, 0.276
- NCI-H358 — lower, 0.127

same assay, conditions: first compound 0.3162 µM; main component drawn

Point of comparison: CAL-12T, relative viability 0.174. Against it:
- NCI-H522 — higher, 0.433
- NCI-H838 — lower, 0.154
- NCI-H1650 — lower, 0.138
- NCI-H1993 — higher, 0.391
- NCI-H2087 — higher, 0.177
- PC-14 — lower, 0.0541
- LCLC-103H — higher, 0.691
- NCI-H596 — higher, 0.38
- NCI-H2228 — higher, 0.269
- EMC-BAC-2 — higher, 0.306
- NCI-H2085 — higher, 0.243
- HCC-366 — lower, 0.0475
- NCI-H1666 — higher, 0.533
- NCI-H647 — lower, 0.114
- LK-2 — higher, 0.263
- NCI-H2126 — higher, 0.52
- NCI-H2342 — higher, 0.577
- SK-MES-1 — higher, 0.28
- H3255 — higher, 0.485
- NCI-H2170 — higher, 0.559
- SW 900 — higher, 0.259
- NCI-H1648 — higher, 0.269
- NCI-H1395 — higher, 0.482
- NCI-H1793 — higher, 0.262
- NCI-H1944 — higher, 0.234
- NCI-H358 — lower, 0.138

same assay, conditions: first compound 1 µM; main component drawn

Point of comparison: NCI-H2170, relative viability 0.468. Against it:
- NCI-H522 — lower, 0.379
- NCI-H838 — lower, 0.118
- NCI-H1650 — lower, 0.135
- NCI-H1993 — lower, 0.346
- NCI-H2087 — lower, 0.135
- PC-14 — lower, 0.0419
- LCLC-103H — higher, 0.507
- NCI-H596 — lower, 0.379
- NCI-H2228 — lower, 0.26
- EMC-BAC-2 — lower, 0.29
- NCI-H2085 — lower, 0.226
- HCC-366 — lower, 0.0448
- NCI-H1666 — higher, 0.581
- NCI-H647 — lower, 0.111
- LK-2 — lower, 0.254
- NCI-H2126 — higher, 0.508
- NCI-H2342 — higher, 0.576
- SK-MES-1 — lower, 0.219
- H3255 — lower, 0.357
- SW 900 — lower, 0.197
- NCI-H1648 — lower, 0.295
- NCI-H1395 — lower, 0.404

— the supplement of paper PMC10307832
